Data reported in patent US5672715A, “Herbicidal substituted 3-aryl-pyrazoles” (Monsanto Company, priority 1995, dated 1997).

How the values were obtained:
Type in all cases: in vivo
[1] = tested on: Soybean; experiment: post-emergence herbicide test; conditions: Glycine max, post-emergence, 0.25 lb/A; read-out: % plant inhibition
Summary of the method: (§1)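 Soil pans seeded, covered and leveled; grown in greenhouse 2–3 weeks. Sprayed individually (atomizer, 10 psig, 200 gallons/acre). Percent inhibition recorded.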

[2] = tested on: Downy Brome; experiment: post-emergence herbicide test; conditions: Bromus tectorum, post-emergence, 0.25 lb/A; read-out: % plant inhibition
Summary of the method: as §1

[3] = tested on: Common Chickweed; experiment: post-emergence herbicide test; conditions: post-emergence, 0.25 lb/A; read-out: % plant inhibition
Summary of the method: as §1

[4] = tested on: Seedling Johnsongrass; experiment: post-emergence herbicide test; conditions: Sorghum halepense, post-emergence, 0.25 lb/A; read-out: % plant inhibition
Summary of the method: as §1

[5] = tested on: Morning Glory; experiment: post-emergence herbicide test; conditions: Ipomoea, post-emergence, 0.25 lb/A; read-out: % plant inhibition
Summary of the method: as §1

[6] = tested on: Blackgrass; experiment: post-emergence herbicide test; conditions: Alopecurus myosuroides, post-emergence, 0.25 lb/A; read-out: % plant inhibition
Summary of the method: as §1

[7] = tested on: Birdseye Speedwell; experiment: post-emergence herbicide test; conditions: post-emergence, 0.25 lb/A; read-out: % plant inhibition
Summary of the method: as §1

[8] = tested on: Wheat; experiment: post-emergence herbicide test; conditions: Triticum aestivum, post-emergence, 0.25 lb/A; read-out: % plant inhibition
Summary of the method: as §1

[9] = tested on: Green Foxtail; experiment: post-emergence herbicide test; conditions: Setaria viridis, post-emergence, 0.25 lb/A; read-out: % plant inhibition
Summary of the method: as §1

[10] = tested on: Barnyardgrass; experiment: post-emergence herbicide test; conditions: Echinochloa crus-galli, post-emergence, 0.25 lb/A; read-out: % plant inhibition
Summary of the method: as §1

[11] = tested on: Bedstraw Catchweed; experiment: post-emergence herbicide test; conditions: Galium aparine, post-emergence, 0.25 lb/A; read-out: % plant inhibition
Summary of the method: as §1

[12] = tested on: Corn; experiment: post-emergence herbicide test; conditions: Zea mays, post-emergence, 0.25 lb/A; read-out: % plant inhibition
Summary of the method: as §1

[13] = tested on: Wild Oats; experiment: post-emergence herbicide test; conditions: Avena fatua, post-emergence, 0.25 lb/A; read-out: % plant inhibition
Summary of the method: as §1

[14] = tested on: Giant Foxtail; experiment: post-emergence herbicide test; conditions: Setaria faberi, post-emergence, 0.25 lb/A; read-out: % plant inhibition
Summary of the method: as §1

[15] = tested on: Cocklebur; experiment: post-emergence herbicide test; conditions: Xanthium strumarium, post-emergence, 0.25 lb/A; read-out: % plant inhibition
Summary of the method: as §1

[16] = tested on: Rape; experiment: post-emergence herbicide test; conditions: post-emergence, 0.25 lb/A; read-out: % plant inhibition
Summary of the method: as §1

[17] = tested on: Velvetleaf; experiment: post-emergence herbicide test; conditions: Abutilon theophrasti, post-emergence, 0.25 lb/A; read-out: % plant inhibition
Summary of the method: as §1

[18] = tested on: Soybean; experiment: pre-emergence herbicide test; conditions: Glycine max, pre-emergence, 0.25 lb/A; read-out: % plant inhibition
Summary of the method: (§2)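 Percent inhibition of emergence and growth was recorded roughly 14 days after seeding. Compound was incorporated into, or applied onto, a topsoil cover layer over seeds in pans kept in a greenhouse and watered from below.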

[19] = tested on: Downy Brome; experiment: pre-emergence herbicide test; conditions: Bromus tectorum, pre-emergence, 0.25 lb/A; read-out: % plant inhibition
Summary of the method: as §2

[20] = tested on: Common Chickweed; experiment: pre-emergence herbicide test; conditions: pre-emergence, 0.25 lb/A; read-out: % plant inhibition
Summary of the method: as §2

[21] = tested on: Seedling Johnsongrass; experiment: pre-emergence herbicide test; conditions: Sorghum halepense, pre-emergence, 0.25 lb/A; read-out: % plant inhibition
Summary of the method: as §2

[22] = tested on: Morning Glory; experiment: pre-emergence herbicide test; conditions: Ipomoea, pre-emergence, 0.25 lb/A; read-out: % plant inhibition
Summary of the method: as §2

[23] = tested on: Blackgrass; experiment: pre-emergence herbicide test; conditions: Alopecurus myosuroides, pre-emergence, 0.25 lb/A; read-out: % plant inhibition
Summary of the method: as §2

[24] = tested on: Birdseye Speedwell; experiment: pre-emergence herbicide test; conditions: pre-emergence, 0.25 lb/A; read-out: % plant inhibition
Summary of the method: as §2

[25] = tested on: Wheat; experiment: pre-emergence herbicide test; conditions: Triticum aestivum, pre-emergence, 0.25 lb/A; read-out: % plant inhibition
Summary of the method: as §2

[26] = tested on: Green Foxtail; experiment: pre-emergence herbicide test; conditions: Setaria viridis, pre-emergence; 0.25 lb/A; read-out: % plant inhibition
Summary of the method: as §2

[27] = tested on: Barnyardgrass; experiment: pre-emergence herbicide test; conditions: Echinochloa crus-galli, pre-emergence, 0.25 lb/A; read-out: % plant inhibition
Summary of the method: as §2

[28] = tested on: Bedstraw Catchweed; experiment: pre-emergence herbicide test; conditions: Galium aparine, pre-emergence, 0.25 lb/A; read-out: % plant inhibition
Summary of the method: as §2

[29] = tested on: Corn; experiment: pre-emergence herbicide test; conditions: Zea mays, pre-emergence, 0.25 lb/A; read-out: % plant inhibition
Summary of the method: as §2

[30] = tested on: Wild Oats; experiment: pre-emergence herbicide test; conditions: Avena fatua, pre-emergence, 0.25 lb/A; read-out: % plant inhibition
Summary of the method: as §2

[31] = tested on: Giant Foxtail; experiment: pre-emergence herbicide test; conditions: Setaria faberi, pre-emergence, 0.25 lb/A; read-out: % plant inhibition
Summary of the method: as §2

[32] = tested on: Cocklebur; experiment: pre-emergence herbicide test; conditions: Xanthium strumarium, pre-emergence, 0.25 lb/A; read-out: % plant inhibition
Summary of the method: as §2

[33] = tested on: Rape; experiment: pre-emergence herbicide test; conditions: pre-emergence, 0.25 lb/A; read-out: % plant inhibition
Summary of the method: as §2

[34] = tested on: Velvetleaf; experiment: pre-emergence herbicide test; conditions: Abutilon theophrasti, pre-emergence, 0.25 lb/A; read-out: % plant inhibition
Summary of the method: as §2

Compound: CCOC(=O)C=C(COC(=O)c1cc(-c2nn(C)c(C(F)(F)F)c2C)c(F)cc1Cl)OC [Compound 44]
- inhibition at 280.212 g/ha [1]: 10%
- inhibition at 280.212 g/ha [2]: 35%
- inhibition at 280.212 g/ha [3]: 95%
- inhibition at 280.212 g/ha [4]: 60%
- inhibition at 280.212 g/ha [5]: 80%
- inhibition at 280.212 g/ha [6]: 25%
- inhibition at 280.212 g/ha [7]: 100%
- inhibition at 280.212 g/ha [8]: 15%
- inhibition at 280.212 g/ha [9]: 90%
- inhibition at 280.212 g/ha [10]: 90%
- inhibition at 280.212 g/ha [11]: 100%
- inhibition at 280.212 g/ha [12]: 15%
- inhibition at 280.212 g/ha [13]: 25%
- inhibition at 280.212 g/ha [14]: 65%
- inhibition at 280.212 g/ha [15]: 99%
- inhibition at 280.212 g/ha [16]: 45%
- inhibition at 280.212 g/ha [17]: 99%
- inhibition at 280.212 g/ha [18]: 0%
- inhibition at 280.212 g/ha [19]: 5%
- inhibition at 280.212 g/ha [20]: 85%
- inhibition at 280.212 g/ha [21]: 40%
- inhibition at 280.212 g/ha [22]: 50%
- inhibition at 280.212 g/ha [23]: 20%
- inhibition at 280.212 g/ha [24]: 85%
- inhibition at 280.212 g/ha [25]: 0%
- inhibition at 280.212 g/ha [26]: 100%
- inhibition at 280.212 g/ha [27]: 10%
- inhibition at 280.212 g/ha [28]: 40%
- inhibition at 280.212 g/ha [29]: 0%
- inhibition at 280.212 g/ha [30]: 5%
- inhibition at 280.212 g/ha [31]: 50%
- inhibition at 280.212 g/ha [32]: 0%
- inhibition at 280.212 g/ha [33]: 20%
- inhibition at 280.212 g/ha [34]: 60%

Compound: Cc1c(-c2cc(C(=O)OCC(=O)OC(C)C)c(Cl)cc2F)nn(C)c1C(F)(F)F [Compound 23]
- inhibition at 280.212 g/ha [1]: 30%
- inhibition at 280.212 g/ha [2]: 25%
- inhibition at 280.212 g/ha [3]: 75%
- inhibition at 280.212 g/ha [4]: 65%
- inhibition at 280.212 g/ha [5]: 65%
- inhibition at 280.212 g/ha [6]: 15%
- inhibition at 280.212 g/ha [7]: 75%
- inhibition at 280.212 g/ha [8]: 11%
- inhibition at 280.212 g/ha [9]: 15%
- inhibition at 280.212 g/ha [10]: 60%
- inhibition at 280.212 g/ha [11]: 50%
- inhibition at 280.212 g/ha [12]: 7%
- inhibition at 280.212 g/ha [13]: 20%
- inhibition at 280.212 g/ha [14]: 20%
- inhibition at 280.212 g/ha [15]: 90%
- inhibition at 280.212 g/ha [16]: 10%
- inhibition at 280.212 g/ha [17]: 98%
- inhibition at 280.212 g/ha [18]: 5%
- inhibition at 280.212 g/ha [19]: 15%
- inhibition at 280.212 g/ha [20]: 100%
- inhibition at 280.212 g/ha [21]: 30%
- inhibition at 280.212 g/ha [22]: 25%
- inhibition at 280.212 g/ha [23]: 15%
- inhibition at 280.212 g/ha [24]: 100%
- inhibition at 280.212 g/ha [25]: 0%
- inhibition at 280.212 g/ha [26]: 85%
- inhibition at 280.212 g/ha [27]: 40%
- inhibition at 280.212 g/ha [28]: 45%
- inhibition at 280.212 g/ha [29]: 0%
- inhibition at 280.212 g/ha [30]: 10%
- inhibition at 280.212 g/ha [31]: 65%
- inhibition at 280.212 g/ha [32]: 10%
- inhibition at 280.212 g/ha [33]: 75%
- inhibition at 280.212 g/ha [34]: 65%
